# Assay results from patent US20220202912A1, “Polypeptides in Preparation of Drugs for Treatment or Prevention of Rheumatoid Arthritis” (priority 2011, published 2022).
# Where “and” joins values, the source holds several entries; their conditions need not be identical. Equal entries are not always repeated. Where no end group is shown, it is not given here.
# Tests used:
# TNF-α [1] = assay: immunohistochemistry of TNF-α in ankle joints, CIA transgenic TNF-luc mice; format: in vivo, BALB/c transgenic TNF-luc mice; settings: Adalimumab 8 mg/kg, mPEG-SC20k-HM-3 20 mg/kg
# Description: Determining criteria: The experimental results are determined based on the proportion of positive cells in all tissue cells and the staining intensity of positive cells: A: scoring is performed based on the number of chromogenic cells, 1 point is given when the proportion of the number of positive cells is less than ⅓, 2 points are given when the proportion of the number of positive cells is ⅓-⅔, and 3 points are given when the proportion of the number of positive cells is greater than or equal to ⅔. B: Based on the color depth of cells, 0 point is given when no cells have positive reaction, 1 point is given when cells are light yellow, 2 points are given when the cells are light brown, and 3 points are given when the cells are dark brown. Point product=A×B. The result is expressed in point product.
# TNF-α [2] = assay: in vivo imaging of TNF-α expression, CIA transgenic TNF-luc mice; set-up: species or system BALB/c transgenic TNF-luc mice; settings: day 36; Adalimumab 8 mg/kg, mPEG-SC20k-HM-3 20 mg/kg
# Description: (§1) […] After the mice are lightly anesthetized with ether, the mice are fixed within 5-20 min and put into an in vivo imager, the imager is covered with an instrument lid, on-fluro and om-photo names in the desktop imaging interface of the computer are clicked, and the expose button is clicked to complete the fluorescence and white light photos of mice in vivo imaging. The specific imaging principle, operation steps, image processing and output are the same as those in the previous embodiment.
# TNF-α [3] = assay: immunohistochemistry of TNF-α in ankle joints, AIA transgenic TNF-luc mice; format: in vivo, BALB/c transgenic TNF-luc mice; settings: Adalimumab 8 mg/kg, mPEG-SC20k-HM-3 20 mg/kg
# Description: Changes of expression of TNF-α and IL-6 are analyzed by HE staining and immunohistochemistry in the ankle joint, spleen and thymus of the mice. Observation and photographing are performed under the FOVs of ×200 and ×400 times respectively, 5 FOVs are taken randomly for each picture, and data statistics is performed.
# TNF-α [4] = assay: in vivo imaging of TNF-α expression, carrageenan-induced TNF-luc mice; set-up: species or system BALB/c transgenic TNF-luc mice; settings: Adalimumab 8 mg/kg, mPEG-SC20k-HM-3 20 mg/kg sc
# Description: At 8 time points, hour 0, hour 2, hour 4, hour 8, hour 12, hour 24, hour 48 and hour 72 after modeling, fluorescein is injected intraperitoneally into each group of mice. After the mice are lightly anesthetized with ether, the mice are fixed within 5-20 min and put into an in vivo imager, the imager is covered with an instrument lid, on-fluro and om-photo names in the desktop imaging interface of the computer are clicked, and the expose button is clicked to complete the fluorescence and white light photos of mice in vivo imaging. The specific imaging principle, operation steps, image processing and output are the same as those in the previous embodiment.
# In vivo imaging results of mice are processed with Carestream Molecular Imaging Software 5.3, and the luminous area is used as the determination of results. The fluorescence areas of the groups after optimization are compared.
# (§2) (1) Imaging principle: Fluorescein substrate is injected intraperitoneally, and binds to luciferase carried on TNF-α protein to catalyze luminescence. Through the Luciferase fluorescent reporter group on TNF, the change of the fluorescence area in mice is observed, and the expression of TNF-α is evaluated, so as to evaluate the impact of mPEG-SC20k-HM-3 on the expression of TNF-α.
# (§3) (2) Operation steps: Start the Carestreama in vivo imager, open the MI software, click the Capture button, and set photographing conditions. In the on-flour fluorescence mode, set the parameters X Binning. 2 pixels, Y Binning. 2 pixels; Illumination Source: Multi-wavelength; f-stop: 2.50; field of view (FOV) (mm): 120; focal plane (mm): Tray. Excitation filter: 430 nm, emission filter: 535 nm; exposure time: 30s. Click the Expose button to photograph fluorescence. Under the om-photo name, set the parameters X Binning. 0 pixels, Y Binning. 0 pixels; Illumination Source: None; f-stop: 2.50; FOV (mm): 120; focal plane (mm): Tray. Excitation filter: 0 nm, emission filter: 0 nm; exposure time: 0.175 s. Click the Expose button to photograph white light.
# (§4) (3) Image processing and output: Analyze and adjust photos of fluorescence function imaging and white light structure imaging to the best, and the FOV is consistent. Click Window→Tie, Display→Invert, Image Display→overlay→Transparency for image stacking. In the image output process, in a navigation panel, click Annotation→Width/Heigh→Scale Analysis Image for setting, click Add Annotation Bar for adding a title, click Add Intensity Scale for adding a ruler, and set Horizontal, Size, Style, Number of Significant Dig, and Horizontal/Vertical Length. Output a picture in Tiff format.
# TNF-α [5] = assay: in vivo imaging of TNF-α expression, AIA transgenic TNF-luc mice; set-up: species or system BALB/c transgenic TNF-luc mice; settings: Adalimumab 8 mg/kg; for Fluorescence intensity (in vivo imaging): mPEG-SC20k-HM-3 20 mg/kg sc; for in vivo fluorescence densities: mPEG-SC20k-HM-3 20 mg/kg
# Description: as §1, with “imaging.” for “imaging. The specific imaging principle, operation steps, image processing and output are the same as those in the previous embodiment.”
# as §2, §3, §4
# CIA mouse models = assay: collagen-induced arthritis (CIA) mouse models; format: in vivo, DBA/1 mice; settings: for clinical scoring / swelling of joints / swelling of paws: 5 times
# [6] = test system: tumor in BALB/c nude mice; assay: in vivo pharmacodynamics (antitumor) of PEG-modified HM-3 in BALB/c nude mice
# Text: Four different types of mPEG-ALD and mPEG-SC with different molecular weights are selected to modify the polypeptide […](named HM-3), i.e., mPEG-ALD5k, mPEG-ALD10k, mPEG-SC10k, mPEG-SC20k, and modification reaction conditions are explored and optimized.
# AIA rat models = assay: adjuvant-induced arthritis (AIA) rat models; format: in vivo, SD rats; settings: for clinical scoring / swelling of left paw / swelling of right paw: 5 times
# [7] = high dose 40 mg/kg once the other day
# [8] = low dose 10 mg/kg once the other day
# [9] = medium dose 20 mg/kg once the other day
substance,measurement,setting,value
Adalimumab [reference compound],immunohistochemical score of TNF-α in ankle joint cavity,TNF-α [1],0.160±0.109
same,in vivo fluorescence densities,TNF-α [2],20.76±4.43 10^5
same,immunohistochemical score of TNF-α in ankle joint cavity,TNF-α [3],0.246±0.110
same,Fluorescence intensity (in vivo imaging),TNF-α [4]; 0 h,18.048 ± 4.770 ×10^5
same,Fluorescence intensity (in vivo imaging),TNF-α [4]; 2 h,18.480 ± 4.887 ×10^5
same,Fluorescence intensity (in vivo imaging),TNF-α [4]; 4 h,20.209 ± 2.261 ×10^5
same,Fluorescence intensity (in vivo imaging),TNF-α [4]; 8 h,25.70±2.67 ×10^5 and 25.703 ± 2.668 ×10^5
same,Fluorescence intensity (in vivo imaging),TNF-α [4]; 12 h,22.40±5.06 ×10^5 and 22.396 ± 5.065 ×10^5
same,Fluorescence intensity (in vivo imaging),TNF-α [4]; 24 h,13.89±8.53 ×10^5 and 13.891 ± 0.853 ×10^5
same,Fluorescence intensity (in vivo imaging),TNF-α [4]; 48 h,14.76±3.58 ×10^5 and 14.765 ± 3.580 ×10^5
same,Fluorescence intensity (in vivo imaging),TNF-α [4]; 72 h,19.87±3.92 ×10^5 and 19.868 ± 3.924 ×10^5
same,Fluorescence intensity (in vivo imaging),TNF-α [5]; 17 d (treatment starts),46.746 ± 3.457 ×10^5
same,Fluorescence intensity (in vivo imaging),TNF-α [5]; 32 d,26.446 ± 2.659 ×10^5
same,in vivo fluorescence densities,"TNF-α [5]; day 17, as printed in text",46.75±3.46 10^6
same,in vivo fluorescence densities,"TNF-α [5]; day 32, as printed in text",26.45±2.66 10^6
"mPEG-SC20k-Ile-Val-Arg-Arg-Ala-Asp-Arg-Ala-Ala-Val-Pro-Gly-Gly-Gly-Gly-Arg-Gly-Asp ({mPEG‑SC 20k}-IVRRADRAAVPGGGGRGD) [polypeptide III, No. 3]",clinical scoring,CIA mouse models; [7],2.00 ± 2.37
same,swelling of joints,CIA mouse models; [7],0.07 mm
same,swelling of paws,CIA mouse models; [7],0.14 ± 0.42 mm
same,clinical scoring,CIA mouse models; [8],4.83 ± 2.99
same,swelling of joints,CIA mouse models; [8],0.23 mm
same,swelling of paws,CIA mouse models; [8],0.37 ± 0.35 mm
same,clinical scoring,CIA mouse models; [9],6.33 ± 4.23
same,swelling of joints,CIA mouse models; [9],0.12 mm
same,swelling of paws,CIA mouse models; [9],0.34 ± 0.42 mm
same,therapeutic effect on collagen-induced arthritis in mice (conclusion),"CIA mouse models; mouse, in vivo",CONCLUSION: polypeptide III has therapeutic effect on collagen-induced arthritis in mice
same,immunohistochemical score of TNF-α in ankle joint cavity,TNF-α [1],0.143±0.055
same,antitumor effect in vivo,[6]; BALB/c nude mice,50.23%
same,toxicity at an effective dose in vivo,[6]; body weight of nude mice basically stable,very low toxicity or no toxicity
same,elimination half life in vivo,[6]; compared with HM-3,greatly improved
same,in vivo fluorescence densities,TNF-α [2],19.02±9.69 10^5
same,immunohistochemical score of TNF-α in ankle joint cavity,TNF-α [3],0.149±0.047
same,Fluorescence intensity (in vivo imaging),TNF-α [4]; 0 h,10.851 ± 3.014 ×10^5
same,Fluorescence intensity (in vivo imaging),TNF-α [4]; 2 h,13.880 ± 5.266 ×10^5
same,Fluorescence intensity (in vivo imaging),TNF-α [4]; 4 h,11.926 ± 2.119 ×10^5
same,Fluorescence intensity (in vivo imaging),TNF-α [4]; 8 h,19.37±3.41 ×10^5 and 19.367 ± 3.408 ×10^5
same,Fluorescence intensity (in vivo imaging),TNF-α [4]; 12 h,18.65±9.09 ×10^5 and 18.653 ± 9.093 ×10^5
same,Fluorescence intensity (in vivo imaging),TNF-α [4]; 24 h,12.65±2.39 ×10^5 and 12.654 ± 2.390 ×10^5
same,Fluorescence intensity (in vivo imaging),TNF-α [4]; 48 h,14.37±6.24 ×10^5 and 14.037 ± 6.238 ×10^5
same,Fluorescence intensity (in vivo imaging),TNF-α [4]; 72 h,13.40±1.17 ×10^5 and 13.402 ± 1.171 ×10^5
same,Fluorescence intensity (in vivo imaging),TNF-α [5]; 17 d (treatment starts),41.604 ± 6.080 ×10^5
same,Fluorescence intensity (in vivo imaging),TNF-α [5]; 32 d,31.956 ± 1.170 ×10^5
same,in vivo fluorescence densities,"TNF-α [5]; day 17, as printed in text",41.6±1.68 10^6
same,in vivo fluorescence densities,"TNF-α [5]; day 32, as printed in text",31.96±1.17 10^6
same,clinical scoring,AIA rat models; [7],5.29 ± 3.90
same,swelling of left paw,AIA rat models; [7],4.40 ± 0.91 mm
same,swelling of right paw,AIA rat models; [7],1.05 ± 1.31 mm
same,clinical scoring,AIA rat models; [8],5.43 ± 2.15
same,swelling of left paw,AIA rat models; [8],4.40 ± 0.91 mm
same,swelling of right paw,AIA rat models; [8],0.76 ± 1.21 mm
same,clinical scoring,AIA rat models; [9],5.71 ± 2.36
same,swelling of left paw,AIA rat models; [9],4.48 ± 1.72 mm
same,swelling of right paw,AIA rat models; [9],1.28 ± 1.27 mm
same,therapeutic effect on adjuvant-induced arthritis in rats (conclusion),"AIA rat models; rat, in vivo","CONCLUSION: polypeptide III has therapeutic effect on adjuvant-induced arthritis, and its effect is higher than that of polypeptide. I."
